The record followed here is PMC7822592, “The half-life of the bone-derived hormone osteocalcin is regulated through O-glycosylation in mice, but not in humans” (eLife, 2020).

In this assay the test system is primary osteoblasts. Briefly: Percentage of carboxylated OCN (Gla-OCN) over total OCN by ELISA in osteoblast secretion medium. It is filed as cell-based, mouse. How it is done:
Primary osteoblasts were transfected using jetPRIME Reagent (Polypus transfection). After an overnight incubation, media were changed to secretion media (FBS-free αMEM plus 2 mM L-glutamine, PS). After 24 hr of secretion, media were collected, and cells were lysed in protein lysis buffer (20 mM Tris-HC pH 7.4, 150 mM NaCl, 1 mM EDTA, 1 mM EGTA, 1% Triton, 1 mM PMSF, and 1 × protease inhibitor cocktail) and analyzed by western blotting. In some experiments, osteoblasts were treated with the γ-carboxylation inhibitor warfarin (50 μM; Santa Cruz Biotechnology), the N-acetylgalactosaminyltransferase inhibitor GalNAc-bn (2 mM, Sigma) or the proprotein convertase inhibitor Dec-RVKR-CMK (50 μM, Tocris), combined with 22 μM vitamin K1 (Sigma).
In general terms: In an ELISA, binding on a coated surface is turned into a signal by an enzyme label.

Regarding `CC(=O)N[C@H]1[C@@H](OCc2ccccc2)O[C@H](CO)[C@H](O)[C@@H]1O` [GalNAc-bn, benzyl-N-acetyl-α-galactosaminide], the “Gla OCN (% of total)” value by setting is: (osteoblasts transfected with OCN-V5, inhibitor 2 mM, secretion medium, Figure 2C, replicate 1) 43.4 % of total; (osteoblasts transfected with OCN-V5, inhibitor 2 mM, secretion medium, Figure 2C, replicate 2) 43.4 % of total.

Consider `CC(=O)CC(c1ccccc1)c1c(O)c2ccccc2oc1=O` (stereo not shown) [Warfarin], for which the “Gla OCN (% of total)” value by setting is: (osteoblasts transfected with OCN-V5, inhibitor 50 μM, Figure 2D/2E, replicate 1) 29.8 % of total; (osteoblasts transfected with OCN-V5, inhibitor 50 μM, Figure 2D/2E, replicate 2) 27.1 % of total; (osteoblasts transfected with OCN-V5, inhibitor 50 μM, Figure 2D/2E, replicate 3) 26.1 % of total; (osteoblasts transfected with OCN-V5, inhibitor 50 μM, secretion medium, Figure 2C, replicate 1) 14.3 % of total; (osteoblasts transfected with OCN-V5, inhibitor 50 μM, secretion medium, Figure 2C, replicate 2) 19.5 % of total; (osteoblasts transfected with OCNS8A-V5, inhibitor 50 μM, Figure 2D/2E, replicate 1) 26.8 % of total. Also, the “Gla OCN (% of total)” value is, setting by setting: (osteoblasts transfected with OCNS8A-V5, inhibitor 50 μM, Figure 2D/2E, replicate 2) 20.4 % of total; (osteoblasts transfected with OCNS8A-V5, inhibitor 50 μM, Figure 2D/2E, replicate 3) 29.1 % of total.
